From PubChem BioAssay (NCI) come the findings set out here.

Molecules are shown by their SMILES. “And” between values parts separate entries of the source, which are not always exact repeats. Equal entries are not always repeated.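 Five concentrations, 48 hours, 96-well plates. GI50 = concentration required for 50% inhibition of growth. TGI: total growth inhibition.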

What all share (assay): growth of human tumour cells (NCI), 48 h
Assay [1] concerns BT-549 breast.
The test system of assay [2] is COLO 205 colon.
Assay [3] relates to UACC-257 melanoma.
The test system of assay [4] is HCT-116 colon.
Assay [5] has as its system UO-31 renal.
In assay [6] the test system is SNB-19 CNS.
Assay [7] has as its system MDA-N.
The subject of assay [8] is A549 NSCLC.
The test system of assay [9] is UACC-62 melanoma.
Assay [10] relates to MOLT-4 leukemia.
In assay [11] the test system is HS 578T breast.

For `N#Cc1c(-c2ccccc2)c(N=Nc2ccc(Cl)cc2)c(=O)n2c1[nH]c1ccccc12`, the TGI in [1], in assay [2], in assay [3], in assay [4], in [5] and in assay [6] was more than 100 µM in each case. The TGI in assay [7] and in assay [8] was more than 100 µM in each case.

Turning to `O=C(N/N=C(/COc1ccc([N+](=O)[O-])cc1)N=Cc1ccncc1)c1ccncc1`, the TGI in assay [1], in assay [2], in assay [3], in assay [4], in assay [9] and in assay [10] was more than 100 µM each time. The TGI in assay [6], in [7] and in [8] was more than 100 µM each time.

`CCCCCCCCCCC1OC([C@@H](O)CC[C@H](O)C2CC[C@@H](CCCCCCCC(O)CC3=CC(C)OC3=O)O2)CCC1O` (stereo partly drawn): the GI50 in [1] was 2340 nM; in assay [2] it was 5.47 µM; in [3], 2510 nM; in [4], 6 µM; in assay [10] it was 2760 nM; in assay [5] it was 2660 nM. In addition, the results for the GI50 in assay [6] and in assay [8] were 2900 nM and 2490 nM, respectively. The TGI is 7.53 µM and > 25 µM in assay [1]; more than 19.8 µM in [2]; more than 18.4 µM in [3]; more than 25 µM in assay [4]; more than 25 µM in assay [9]; more than 13.9 µM in [10]. In addition, the TGI in assay [5] is 10.4 µM; in assay [6], more than 25 µM; in assay [7] it was more than 25 µM; in assay [8], more than 25 µM.

Take `CC(=O)N=C1N(/C=C2\C(=O)Oc3ccccc3C2=O)C(=O)/C(=C/c2ccc(Cl)cc2Cl)N1C`: the TGI in assay [1] is 62 µM; in assay [2], more than 100 µM; in [11] it was 5.03 µM; in assay [3] it was more than 100 µM; in assay [4] it was more than 100 µM; in assay [9], more than 100 µM. In addition, the TGI in assay [10] and in [8] was more than 100 µM throughout.

As for `FC1C2=C(SC1(F)F)C1CCC2C1` (stereo not drawn), the TGI in assay [1], in [2], in assay [11], in assay [3], in assay [4] and in assay [9] was more than 100 µM throughout. Besides, the TGI in assay [10], in assay [5], in assay [6] and in [8] was more than 100 µM throughout.

Regarding `COc1cc2c(cc1OC)C1(COc3cc(O)c(O)c(O)c3C1=O)C2` (stereo not drawn), the TGI in assay [2], in assay [11], in assay [3], in [4], in [9] and in assay [10] was more than 50 µM in each case. Further, the TGI in assay [5], in [6], in assay [7] and in assay [8] was more than 50 µM each time.

Turning to `Clc1ccc(C(SCc2ccccc2)SCc2ccccc2)cc1`, the TGI in assay [2], in [11], in [3], in assay [4], in assay [9] and in [10] was more than 10 µM throughout. The TGI in [5], in assay [6], in assay [7] and in assay [8] was more than 10 µM in each case.

For `Cc1cc(S(=O)(=O)Nc2nc(N)nc(N(C)C)n2)c(SCC(=O)O)cc1Cl`, the TGI in assay [1], in assay [2], in assay [3], in [4], in assay [10] and in assay [5] was more than 10 µM throughout. Also, the TGI in assay [6], in assay [7] and in assay [8] was more than 10 µM each time.

Take `CCOC(=O)c1sc2[n+](c1C)C(=O)/C(=C/c1ccc([N+](=O)[O-])cc1)S2`: the TGI came to 68.7 µM in [2]; 67 µM in assay [11]; 98 µM in assay [3]; 54.7 µM in assay [4]; 40.3 µM in assay [9]; 53.5 µM in assay [10]. The TGI in assay [5] is 33.4 µM; in [6] it was more than 100 µM; in assay [7] it was 66.9 µM; in assay [8], more than 100 µM.

For `C=CCO[C@]1(CC=C)C(=O)C(=O)OC1C1COC(C)(C)O1` (stereo partly drawn), the TGI was 37.5 µM in assay [2]; more than 100 µM in assay [11]; more than 100 µM in [3]; 74.7 µM in [4]; 93.8 µM in assay [10]; more than 100 µM in assay [5]. Further, the TGI in assay [6], in [7] and in assay [8] was more than 100 µM each time.

For `CC(C)C1=CC23CCC4C(C)(C(=O)O)CCCC4(C)C2CC1C1C(=O)N(c2ccccc2)C(=O)C13` (stereo not drawn), the TGI in assay [2] was 52.3 µM; in [3], 84.2 µM; in assay [4], more than 100 µM; in assay [9], more than 100 µM; in assay [10], more than 100 µM; in assay [5], more than 100 µM. Also, the TGI in [6] and in assay [8] was more than 100 µM in each case.

As for `O=C1CC(c2cccc(Br)c2)n2cccc21` (stereo not drawn), the TGI in [2], in assay [11], in assay [3], in [4], in assay [9] and in assay [10] was more than 100 µM in each case. Also, the figures for the TGI in [5], in assay [6] and in assay [8] were 66.9 µM, more than 100 µM and more than 100 µM, respectively.

For `Oc1ccc(Cl)cc1CN1CCN(Cc2cc(Cl)ccc2O)C1`, the TGI stood at 5.15 µM in assay [2]; 8.99 µM in [11]; 5.48 µM in assay [3]; 1.34 µM in assay [4]; 3.94 µM in [9]; 12 µM in [10]. Besides, the TGI amounted to 2.19 µM in assay [5], 12.2 µM in [6], 6.43 µM in assay [7] and 9.85 µM in assay [8].
